pEC50: −log10 of the molar value. Like-named read-outs stand apart in the source and are kept apart here.
Experiments:
CB1 = conditions: ref [4], [60], cited from earlier work; for pEC50: earlier in vitro data, read-out: EC 50 at CB1; for E max at CB1: normalized to CP55,940
CB1 receptor = CB1 receptor (Homo sapiens, UniProt P21554); assay: NanoBiT βarr2 recruitment bioassay at CB1 (HEK 293T cells stably expressing CB1‐βarr2); conditions: for E max at CB1: normalized to E max of CP55,940 (set at 100%)
CB2 receptor = CB2 receptor (Homo sapiens, UniProt P34972); assay: NanoBiT βarr2 recruitment bioassay at CB2 (HEK 293T cells stably expressing CB2‐βarr2); conditions: for E max at CB2: normalized to E max of CP55,940 (set at 100%)
CB2 receptor, sequence (P34972 whole entry): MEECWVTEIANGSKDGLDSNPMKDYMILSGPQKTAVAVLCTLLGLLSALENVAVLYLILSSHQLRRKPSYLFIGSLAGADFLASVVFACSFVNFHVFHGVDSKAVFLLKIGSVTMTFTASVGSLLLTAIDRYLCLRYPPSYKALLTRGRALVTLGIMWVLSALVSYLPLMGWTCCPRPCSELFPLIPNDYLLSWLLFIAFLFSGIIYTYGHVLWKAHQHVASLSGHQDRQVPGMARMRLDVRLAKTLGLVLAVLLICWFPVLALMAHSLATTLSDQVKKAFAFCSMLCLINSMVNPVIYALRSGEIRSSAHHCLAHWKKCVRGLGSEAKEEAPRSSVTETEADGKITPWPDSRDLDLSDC
CB2 receptor, sequence (P32121 whole entry partner): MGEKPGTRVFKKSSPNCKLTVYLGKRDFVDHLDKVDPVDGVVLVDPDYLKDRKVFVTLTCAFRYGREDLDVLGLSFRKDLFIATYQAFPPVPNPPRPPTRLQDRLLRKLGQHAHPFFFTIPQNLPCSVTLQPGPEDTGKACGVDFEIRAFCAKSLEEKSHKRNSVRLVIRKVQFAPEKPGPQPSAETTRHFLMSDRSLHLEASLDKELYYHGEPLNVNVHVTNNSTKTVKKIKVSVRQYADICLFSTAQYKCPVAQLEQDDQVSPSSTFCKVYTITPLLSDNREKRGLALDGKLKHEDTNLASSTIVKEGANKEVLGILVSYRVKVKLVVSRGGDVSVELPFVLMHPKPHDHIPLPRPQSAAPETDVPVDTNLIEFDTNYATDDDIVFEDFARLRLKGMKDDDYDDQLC

CB1 receptor, sequence (P21554 whole entry): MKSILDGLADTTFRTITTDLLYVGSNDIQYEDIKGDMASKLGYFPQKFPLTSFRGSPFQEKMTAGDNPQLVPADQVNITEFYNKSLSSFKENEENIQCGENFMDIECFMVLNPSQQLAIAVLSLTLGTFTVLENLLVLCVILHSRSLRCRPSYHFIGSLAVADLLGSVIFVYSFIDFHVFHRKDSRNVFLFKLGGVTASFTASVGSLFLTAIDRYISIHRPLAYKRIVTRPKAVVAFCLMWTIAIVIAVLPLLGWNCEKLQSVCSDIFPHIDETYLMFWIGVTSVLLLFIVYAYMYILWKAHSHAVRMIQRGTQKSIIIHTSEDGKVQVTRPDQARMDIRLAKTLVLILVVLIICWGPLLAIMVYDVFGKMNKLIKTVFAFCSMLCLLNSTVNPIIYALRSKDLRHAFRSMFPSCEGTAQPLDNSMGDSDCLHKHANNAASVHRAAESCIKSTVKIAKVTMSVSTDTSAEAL
CB1 receptor, sequence (P32121 whole entry partner): as the sequence (P32121 whole entry partner) above

Structure (SMILES)	pEC50 (CB1)	E max at CB1 (CB1)	E max at CB1 (CB1 receptor; interval in brackets)	pEC50 (CB1 receptor; read-out: EC 50 at CB1, βarr2 recruitment, three‐parameter logistic fit, interval in brackets)	E max at CB2 (CB2 receptor; interval in brackets)	pEC50 (CB2 receptor; read-out: EC 50 at CB2, βarr2 recruitment, three‐parameter logistic fit, interval in brackets)	pEC50 (CB1 receptor)	pEC50 (CB2 receptor)
C=CCCCn1nc(C(=O)N[C@H](C(=O)OC)C(C)(C)C)c2ccccc21 [MDMB‐4en‐PINACA]	8.73	679%	–	–	–	–	–	–
CCCCn1nc(C(=O)N[C@H](C(N)=O)C(C)(C)C)c2ccccc21 [ADB‐BUTINACA]	7.72	728%	–	–	–	–	–	–
CCCCCn1cc(C(=O)c2cccc3ccccc23)c2ccccc21 [JWH‐018]	–	–	342 (300–385) %	7.73	71.9 (66–77.9) %	8.23	–	–
COC(=O)[C@@H](NC(=O)c1n[nH]c2ccccc12)C(C)(C)C [MDMB‐INACA]	–	–	268 (233–305) %	–	150 (134–167) %	–	5.17	7.26
